Data taken from patent publication US8957064B2, “Fused pyrimidines” (Bayer Intellectual Property GmbH, priority 2009, dated 2015).

Key:
[1] = target: His-tagged human recombinant kinase full-length Akt1 (Homo sapiens (Human), UniProt P31749); experiment: Akt1 kinase assay (Akt1 TR-FRET assay, Biological Assay 1.0); assay type: biochemical; details: 10 μM ATP, 1 μM biotinylated peptide substrate, 60 min at 22° C.
Method in brief: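 Insect-cell-expressed full-length His-Akt1 (~0.05 ng/μl) preincubated 15 min with compound, then reacted 60 min at 22 °C with 10 μM ATP and 1 μM biotinylated peptide (final), pH 7.5. Phosphopeptide detected by HTRF (665/620 nm ratio). Data normalised to no-inhibitor and no-enzyme controls.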

[2] = target: His-tagged human recombinant kinase full-length Akt2 activated by PDK1 (Homo sapiens (Human), UniProt P31751); experiment: Akt2 kinase assay (Akt2 TR-FRET assay, Biological Assay 2.0); assay type: biochemical; details: 10 μM ATP, 1 μM biotinylated peptide substrate, 60 min at 22° C.
Method in brief: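 Compound was pre-incubated with enzyme (~0.2 ng/µl final) for 15 min at 22 °C in Tris pH 7.5, 5 mM MgCl2, then reacted 60 min with 10 µM ATP and 1 µM biotinylated peptide. Phosphopeptide was detected by TR-FRET (665/622 nm ratio). Data were normalised to no-inhibitor (0%) and no-enzyme (100%) controls.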

His-tagged human recombinant kinase full-length Akt1, sequence (P31749 whole entry): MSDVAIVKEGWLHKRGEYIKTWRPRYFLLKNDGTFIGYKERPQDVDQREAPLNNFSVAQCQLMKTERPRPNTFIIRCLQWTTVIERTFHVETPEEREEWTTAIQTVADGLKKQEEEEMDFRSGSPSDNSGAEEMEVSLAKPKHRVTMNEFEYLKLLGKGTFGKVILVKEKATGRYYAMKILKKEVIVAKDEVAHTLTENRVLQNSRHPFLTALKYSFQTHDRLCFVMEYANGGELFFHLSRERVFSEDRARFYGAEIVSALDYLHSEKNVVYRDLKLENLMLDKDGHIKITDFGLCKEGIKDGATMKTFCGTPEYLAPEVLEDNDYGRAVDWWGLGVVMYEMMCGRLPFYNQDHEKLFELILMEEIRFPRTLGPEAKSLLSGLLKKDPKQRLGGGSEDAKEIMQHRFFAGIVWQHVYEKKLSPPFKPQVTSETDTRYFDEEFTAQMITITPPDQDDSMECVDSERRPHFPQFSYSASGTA
His-tagged human recombinant kinase full-length Akt2 activated by PDK1, sequence (P31751 whole entry): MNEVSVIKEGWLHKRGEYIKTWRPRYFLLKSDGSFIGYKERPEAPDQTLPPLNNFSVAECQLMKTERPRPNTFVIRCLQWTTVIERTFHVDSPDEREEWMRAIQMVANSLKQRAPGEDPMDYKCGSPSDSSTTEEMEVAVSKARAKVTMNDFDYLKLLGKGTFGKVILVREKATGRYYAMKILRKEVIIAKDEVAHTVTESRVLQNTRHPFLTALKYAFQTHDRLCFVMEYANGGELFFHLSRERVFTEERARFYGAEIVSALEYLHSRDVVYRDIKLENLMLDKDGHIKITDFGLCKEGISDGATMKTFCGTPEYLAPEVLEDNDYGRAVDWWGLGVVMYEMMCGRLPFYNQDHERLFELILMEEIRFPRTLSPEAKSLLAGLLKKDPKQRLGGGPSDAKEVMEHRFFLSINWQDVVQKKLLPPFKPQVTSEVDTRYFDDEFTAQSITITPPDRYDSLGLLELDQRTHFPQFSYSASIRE

SMILES | IC50 [1] [nM] | IC50 [2] [nM]
Fc1ccc(-c2cn3ccnc3nc2-c2ccc(CN3CCC(c4n[nH]c(-c5cnccn5)n4)CC3)cc2)cc1 [Example 52.2, 6-(4-fluorophenyl)-7-{4-[4-(5-pyrazine-2-yl-1H-[1,2,4]triazole-3-yl]-piperidine-1-ylmethyl]-phenyl}-imidazo[1,2-a]pyrimidine] | 186 | 1440
Cc1cccc(-c2nc(C3CCN(Cc4ccc(-c5nc6ncc(Br)n6cc5-c5ccc(F)cc5)cc4)CC3)n[nH]2)n1 [Example 53.0, 3-bromo-6-(4-fluorophenyl)-7-(4-{4-[5-(6-methylpyridine-2-yl)-1H-[1,2,4]triazole-3-yl]-piperidine-1-ylmethyl}-phenyl)-imidazo[1,2-a]pyrimidine] | 11 | 7
Fc1ccc(-c2cn3c(Cl)cnc3nc2-c2ccc(CN3CCC(c4n[nH]c(-c5ccccn5)n4)CC3)cc2)cc1 [Example 53.1, 3-chloro-6-(4-fluorophenyl)-7-{4-[4-(5-pyridine-2-yl-1H-[1,2,4]triazole-3-yl)-piperidine-1-ylmethyl]-phenyl}-imidazo[1,2-a]pyrimidine] | 25 | 33
Cc1cccc(-c2nc(C3CCN(Cc4ccc(-c5nc6nccn6cc5-c5ccccc5F)cc4)CC3)n[nH]2)n1 [Example 54.0, 6-(2-fluorophenyl)-7-(4-{4-[5-(6-methylpyridine-2-yl)-1H-[1,2,4]triazole-3-yl]-piperidine-1-ylmethyl}-phenyl)-imidazo[1,2-a]pyrimidine] | 3 | 17
Brc1cnc2nc(-c3ccc(CN4CC(c5n[nH]c(-c6ccccn6)n5)C4)cc3)c(-c3ccccc3)cn12 [Example 55.0, 3-bromo-6-phenyl-7-{4-{3-[5-(pyridine-2-yl)-1H-[1,2,4]triazole-3-yl)-azetidine-1-ylmethyl]-phenyl}-imidazo[1,2-a]pyrimidine] | 6 | 14
Cc1cn2cc(-c3ccccc3)c(-c3ccc(CN4CC(c5n[nH]c(-c6ccccn6)n5)C4)cc3)nc2n1 [Example 56.0, 2-methyl-6-phenyl-7-{4-{3-[5-(pyridine-2-yl)-1H-[1,2,4]triazole-3-yl)-azetidine-1-ylmethyl]-phenyl}-imidazo[1,2-a]pyrimidine] | 10 | 47
Cc1cccc(-c2nc(C3CN(Cc4ccc(-c5nc6nc(C)c(Br)n6cc5-c5ccccc5)cc4)C3)n[nH]2)n1 [Example 57.0, 3-bromo-2-methyl-7-{4-{3-[5-(6-methylpyridine-2-yl)-1H-[1,2,4]triazole-3-yl)-azetidine-1-ylmethyl]-phenyl}-6-phenyl-imidazo[1,2-a]pyrimidine] | 6 | 3
CNc1c(-c2ccccc2)c(-c2ccc(CN3CC(c4n[nH]c(-c5ccccn5)n4)C3)cc2)nc2nccn12 [Example 58.0, methyl-(6-phenyl-7-{4-{3-[5-(pyridine-2-yl)-1H-[1,2,4]triazole-3-yl)-azetidine-1-ylmethyl]-phenyl}-imidazo[1,2-a]pyrimidin-5-yl)-amine] | 30 | 476
CNc1c(-c2ccccc2)c(-c2ccc(CN3CC(c4n[nH]c(-c5ccccn5)n4)C3)cc2)nc2ncc(Br)n12 [Example 59.0, (3-bromo-6-phenyl-7-{4-{3-[5-(pyridine-2-yl)-1H-[1,2,4]triazole-3-yl)-azetidine-1-ylmethyl]-phenyl}-imidazo[1,2-a]pyrimidin-5-yl)-methylamine] | 42 | 128
CNc1c(-c2ccccc2)c(-c2ccc(CN3CC(c4n[nH]c(-c5ccccn5)n4)C3)cc2)nc2nc(C)cn12 [Example 60.0, methyl-(2-methyl-6-phenyl-7-{4-{3-[5-(pyridine-2-yl)-1H-[1,2,4]triazole-3-yl)-azetidine-1-ylmethyl]-phenyl}-imidazo[1,2-a]pyrimidin-5-yl)-amine] | 16 | 55
CNc1c(-c2ccccc2)c(-c2ccc(CN3CC(c4n[nH]c(-c5cccc(C)n5)n4)C3)cc2)nc2nc(C)cn12 [Example 61.0, methyl-(2-methyl-7-{4-{3-[5-(6-methylpyridine-2-yl)-1H-[1,2,4]triazole-3-yl)-azetidine-1-ylmethyl]-phenyl}-6-phenyl-imidazo[1,2-a]pyrimidin-5-yl)-amine] | 11 | 19
OCc1cnn2cc(-c3c(F)cccc3F)c(-c3ccc(CN4CC(c5n[nH]c(-c6ccccn6)n5)C4)cc3)nc12 [Example 62.0, (6-(2,6-difluorophenyl)-5-{4-[3-[5-pyridine-2-yl-1H-[1,2,4]triazole-3-yl)-azetidine-1-ylmethyl]-phenyl}-pyrazolo[1,5-a]pyrimidin-3-yl)-methanol] | 55 | 801
COc1nn2cc(-c3c(F)cccc3F)c(-c3ccc(CN4CC(c5n[nH]c(-c6ccccn6)n5)C4)cc3)nc2c1CO [Example 63.0, (6-(2,6-difluorophenyl)-2-methoxy-5-{4-[3-[5-pyridine-2-yl-1H-[1,2,4]triazole-3-yl)-azetidine-1-ylmethyl]-phenyl}-pyrazolo[1,5-a]pyrimidin-3-yl)-methanol] | 14 | 118
COc1nn2cc(-c3c(F)cccc3F)c(-c3ccc(CN4CC(c5n[nH]c(-c6cccc(C)n6)n5)C4)cc3)nc2c1CO [Example 63.1] | 8 | 34
COc1nn2cc(-c3c(F)cccc3F)c(-c3ccc(CN4CCC(c5n[nH]c(-c6cccc(C)n6)n5)CC4)cc3)nc2c1CO [Example 63.2] | 18 | 108
COc1nn2cc(-c3c(F)cccc3F)c(-c3ccc(CN4CCC(c5n[nH]c(-c6ccccn6)n5)CC4)cc3)nc2c1CO [Example 63.3, (6-(2,6-difluorophenyl)-2-methoxy-5-{4-[4-(5-pyridine-2-yl-1H-[1,2,4]triazole-3-yl)-piperidine-1-ylmethyl]-phenyl}-pyrazolo[1,5-a]pyrimidin-3-yl)-methanol] | 10 | 97
Cc1cn2c(NC(C)C)c(-c3ccccc3)c(-c3ccc(CN4CC(c5n[nH]c(-c6ccccn6)n5)C4)cc3)nc2n1 [Example 64.0, isopropyl-(2-methyl-6-phenyl-7-{4-{3-[5-(pyridine-2-yl)-1H-[1,2,4]triazole-3-yl)-azetidine-1-ylmethyl]-phenyl}-imidazo[1,2-a]pyrimidin-5-yl)-amine] | 30 | 39
Cc1cccc(-c2nc(C3CN(Cc4ccc(-c5nc6nc(C)cn6c(NC(C)C)c5-c5ccccc5)cc4)C3)n[nH]2)n1 [Example 65.0, isopropyl-(2-methyl-6-phenyl-7-{4-{3-[5-(6-methylpyridine-2-yl)-1H-[1,2,4]triazole-3-yl)-azetidine-1-ylmethyl]-phenyl}-imidazo[1,2-a]pyrimidin-5-yl)-amine] | 33 | 36
CC(C)Nc1c(-c2ccccc2)c(-c2ccc(CN3CC(c4n[nH]c(-c5ccccn5)n4)C3)cc2)nc2nccn12 [Example 66.0, isopropyl-(6-phenyl-7-{4-{3-[5-(pyridine-2-yl)-1H-[1,2,4]triazole-3-yl)-azetidine-1-ylmethyl]-phenyl}-imidazo[1,2-a]pyrimidin-5-yl)-amine] | 25 | 53
CNc1c(-c2ccccc2)c(-c2ccc(CN3CC(c4n[nH]c(-c5ccccn5)n4)C3)cc2)nc2nc(-c3ccccn3)nn12 [Example 67.0] | 29 | 145
